Reference: patent US20100209513A1, “PHARMACEUTICAL COMPOSITION CONTAINING MICRONIZED PARTICLES OF NAPHTHOQUINONE-BASED COMPOUND” (priority 2007, published 2010)

Legend:
[1] = Dissolution test, paddle method (Example 15); assay type: physicochemical; conditions: for Increasing rate of dissolution rate of 12 hours: after versus before microparticulation; for Change of dissolution rate of micronized particles compared to before micronization: different time points, FIGS. 3 to 6, pH 6.8, 1.5% Tween 80, 37° C.; for Dissolution rate of 12 hours after microparticulation / Dissolution rate of 12 hours before microparticulation: paddle 75 rpm, 37° C., pH 6.8, 1.5% Tween 80; for Dissolution rate of 12 hours after microparticulation: after microparticulation (Jet mill or ball mill, no surfactant)
Description: Dissolution test was commonly carried out under the following condition.
(§1) The dissolution test was carried out according to the paddle method of Korean Phramacopeia. The paddle rate was 75 rpm, the temperature of an effluent was 37° C., and a test solution was a mixture solution of pH 6.8, 1.5% Tween 80. First, the test solution was filtered through a […] Membrane filter and centrifuged. Supernatant fluid was taken, and the content of drug was analyzed by HPLC, and the amount of released drug was measured at different time points. The drugs used for the dissolution test are Compounds 1, 5, 44 and 51 provided in Table 1, and the extract set forth in the Korean Patent No. 10-818586 which contains Compound 58 over 60 wt % (‘Compound 58 Extract’). Microparticulation was carried out using Jet mill or ball mill without any surfactant. The particle size of compounds was determined by HELOS measurement.

[2] = Particle size before and after micronization, HELOS measurement (Example 15); assay type: physicochemical; conditions: for Particle size X50 after micronization / Particle size X90 after micronization: after micronization by Jet mill or ball mill without surfactant
Description: as §1
Measurement of the particle size was carried out by putting approximately 3 ml of a sample into a cell for particle size measurement and measuring the particle size during 60 seconds per sample. The particle sizes before and after micronization are provided below.

[3] = Body weight change in ob/ob mice given suspensions of cryptotanshinone powder or micronized particles (Example 6); assay type: in vivo; conditions: ob/ob male mice; 400 mg/kg PO once a day
Description: 1 g of a simply finely-divided powder of cryptotanshinone, and 1 g of each micronized particles of cryptotanshinone compound according to the procedures of Examples 1 to 3 were mixed with 10 mL of distilled water, and the resulting mixtures were processed in a sonicator for 30 min to prepare suspensions of the cryptotanshinone compounds. 400 mg/kg of these suspensions in terms of cryptotanshinone content was administered to ob/ob mice once a day and changes in the body weight (BW) of animals were examined.
For this purpose, 10-week-old ob/ob male mice (Jackson Lab) as an obese mouse model of type 2 diabetes were purchased from Orient Co., Ltd., Korea and were allowed to acclimate to a new environment of the breeding room for 10 days prior to experiments. Animals were fed a solid feed (P5053, Labdiet) as a laboratory animal chow. The ob/ob male mice were housed and allowed to acclimate to a new environment for 10 days, in a breeding room maintained at a temperature of 22±2° C., humidity of 55±5%, and a 12-h light/dark (L/D) cycle (light from 8:00 a.m. to 8:00 p.m.). […]

[4] = Particle size of micronized particles prepared in Examples 1 to 5; assay type: physicochemical; conditions: cryptotanshinone prior to supercritical micronization
Description: In order to develop a supercritical micronization process, 5 g of cryptotanshinone having a particle size distribution of 1 to 100 μm and an average particle size of 30 μm, and 0.5 g of sodium lauryl sulfate were dissolved in 45 mL of methylene chloride. Thereafter, the resulting solution of cryptotanshinone in methylene chloride was injected at a flow rate of 1 to 2 mL/min via a nozzle orifice with a diameter of 1/16 inch into a reaction vessel which was set to a temperature of 30° C., 80 bar, and 2,000 rpm and was filled with liquefied carbon dioxide, whereas carbon dioxide was injected at a flow rate of 10 to 20 mL/min via a nozzle orifice with a diameter of 1/16 inch using an ISCO pump.
In order to recover precipitates of small-sized particles from the liquid carbon dioxide solution as an insoluble solvent in the reaction vessel, a volume of carbon dioxide which is 15-fold that of the reaction vessel was flowed to remove the remaining organic solvent and the pressure of the reaction vessel was reduced to recover micronized particles of cryptotanshinone. […]
Micronizing of cryptotanshinone was carried out using a Jet mill (SJ-100, Nisshin, Japan). […] Micronized particles were recovered and a particle size was determined in terms of particle diameter by […]. […]

[5] = Body weight change in DIO (diet-induced obesity) SD rats with varying dosages of micronized cryptotanshinone (Example 7); assay type: in vivo; conditions: for BW loss / Final BW: high-fat diet, Jet mill-micronized with 0.2% SLS
Description: Each of formulations composed of a mixture of Jet mill-micronized cryptotanshinone at 25 mg/kg, 50 mg/kg and 100 mg/kg with 0.2% (w/w) sodium lauryl sulfate was administered daily for 28 days to DIO (diet-induced obesity) SD rats in which obesity was caused by high-fat diet for 4 weeks. As a control, a surfactant SLS at a concentration of 0.2% was suspended in distilled water and a suspension was then administered to animals.

Increasing rate of dissolution rate of 12 hours [1] [%]	Change of dissolution rate of micronized particles compared to before micronization [1]	Dissolution rate of 12 hours after microparticulation [1] [%]	Dissolution rate of 12 hours before microparticulation [1] [%]	Particle size X50 after micronization [2]	Particle size X90 after micronization [2]	Particle size X50 before micronization [2]	Particle size X90 before micronization [2]	Compound	Final BW [3] [g]	Average particle size [4] [μm]	Loss of body weight compared to the control group ([5]; 25, 50 and 100 mg/kg daily for 28 days, concentration-dependent)	BW loss ([5]; 25 mg/kg daily for 28 days) [%]	Final BW ([5]; 25 mg/kg daily for 28 days) [g]	BW loss ([5]; 50 mg/kg daily for 28 days) [%]	Final BW ([5]; 50 mg/kg daily for 28 days) [g]	BW loss ([5]; 100 mg/kg daily for 28 days) [%]	Final BW ([5]; 100 mg/kg daily for 28 days) [g]
42	increased significantly	95.52	67.19	X50 = 2.39 μm	X90 = 5.03 μm	X50 = 27.83 μm	X90 = 33.74 μm	CC1(C)CCC2=C(O1)c1ccccc1C(=O)C2=O [Compound 1, 7,8-dihydro-2,2-dimethyl-2H-naphtho(2,3-b)dihydropyran-7,8-dione]	–	–	–	–	–	–	–	–	–
–	increased significantly	41.05	13.81	X50 = 2.41 μm	X90 = 24.57 μm	X50 = 3.15 μm	X90 = 22.41 μm	CC1OC2=C(C(=O)C(=O)c3c2ccc2c3CCCC2)C1(C)C (stereo not drawn) [Compound 44]	–	–	–	–	–	–	–	–	–

Second part, the compound before the results:

Compound	Increasing rate of dissolution rate of 12 hours [1] [%]	Change of dissolution rate of micronized particles compared to before micronization [1]	Dissolution rate of 12 hours after microparticulation [1] [%]	Dissolution rate of 12 hours before microparticulation [1] [%]	Particle size X50 after micronization [2]	Particle size X90 after micronization [2]	Particle size X50 before micronization [2]	Particle size X90 before micronization [2]	Final BW [3] [g]	Average particle size [4] [μm]	Loss of body weight compared to the control group ([5]; 25, 50 and 100 mg/kg daily for 28 days, concentration-dependent)	BW loss ([5]; 25 mg/kg daily for 28 days) [%]	Final BW ([5]; 25 mg/kg daily for 28 days) [g]	BW loss ([5]; 50 mg/kg daily for 28 days) [%]	Final BW ([5]; 50 mg/kg daily for 28 days) [g]	BW loss ([5]; 100 mg/kg daily for 28 days) [%]	Final BW ([5]; 100 mg/kg daily for 28 days) [g]
CC1CC2=C(O1)c1ccccc1C(=O)C2=O (stereo not drawn) [Compound 5]	10	increased significantly	86.12	78.12	X50 = 2.48 μm	X90 = 5.38 μm	X50 = 3.61 μm	X90 = 20.09 μm	–	–	–	–	–	–	–	–	–
Cc1cc2c(c3ccccc13)C(=O)C(=O)C1=C2OC(C)C1(C)C (stereo not drawn) [Compound 51]	–	increased significantly	51.3	24.08	X50 = 3.05 μm	X90 = 13.48 μm	X50 = 5.08 μm	X90 = 21.97 μm	–	–	–	–	–	–	–	–	–
C[C@H]1COC2=C1C(=O)C(=O)c1c2ccc2c1CCCC2(C)C [Simply finely-divided cryptotanshinone, cryptotanshinone]	–	–	–	–	–	–	–	–	57.5 ± 1.3	–	–	–	–	–	–	–	–
cryptotanshinone [Compound 58]	–	–	–	–	–	–	–	–	–	30	significant loss of body weight	16.9 ± 3.8	589.0 ± 50.4	15.4 ± 3.7	578.8 ± 54.6	6.2 ± 5.5	529.8 ± 59.1
